Results: PMC7270110, “Labeled oxytocin administered via the intranasal route reaches the brain in rhesus macaques” (Nature Communications, 2020)

Assay: Brain tissue concentration of endogenous OT (d0OT) by LC-MS/MS (terminal experiment)
Type: in vivo, rhesus macaques (Macaca mulatta)
Parameters: key: ND: not detected; +: detected but not quantifiable
Settings: for Concentrations of endogenous brain oxytocin (OT): molarity calculated for extracellular fluid volume; for BRAIN OT concentration (endogenous): LC-MS/MS
Description: Monkeys were divided into three groups, each with two monkeys; each group received the following in a terminal study at the 5th week: Group 1 (Monkeys ID# 1 and ID# 5) received 40 IU of d5OT IN, Group 2 received 80 IU of d5OT IN (Monkeys ID# 2 and ID# 4) and Group 3 received 80 IU of d5OT IV (Monkeys ID# 3 and ID# 6). Animals were perfused on average, 140 ± 7 (mean ± SD) min after d5OT administration (range = 135–149 min) (Table 4). Plasma and CSF were drawn just before administration of d5OT, at the midpoint between d5OT administration and perfusion (~60 min post-d5OT administration), and just before perfusion.
Brain tissue distribution of d5OT, as well as the endogenous concentrations of OT (d0OT), were measured in the following 12 brain regions: cerebellum, brainstem, striatum, amygdala, thalamus, visual cortex, insular cortex, hypothalamus, hippocampus, mPFC (Brodmann areas 32,25,24), dPFC (Brodmann areas 46,9,10), and OFC (Brodmann areas 14,13,12) (Tables 1, 2 and 3).
Brain tissue sample preparation: Samples (~1.5 mg per sample) were individually weighed and placed into 12 mm × 75 mm glass tubes containing 1.5 ml ice-cold 1 M acetic acid and 30 µl of OT-d10 internal standard. Tissues were homogenized on ice and the resulting homogenates were poured into individual 15 ml polystyrene tubes. The original glass tube was rinsed with 1 ml acetonitrile, and this rinse was added to the appropriate 15 ml polystyrene tube containing the homogenate. After all homogenizations were complete, 3 ml acetonitrile was added to each tube and extraction proceeded, as described for the plasma and CSF samples.
LC–MS/MS instrument parameters: Microtiter plates were prepared, as described above, and loaded onto a SIL-30ACMP autosampler set at 4 °C (Shimadzu). Forty microliters of each standard, QC or sample were injected onto an ACE Excel 2 C18-PFP 50 mm × 2.1 mm column (Advanced Chromatography Technologies, LTD, Aberdeen, Scotland) at 50 °C using reversed-phase chromatography. Mobile phase A was 0.1% formic acid in water and mobile phase B was 0.1% formic acid in ACN. The LC time gradient was created using two Nexera LC-30AD pumps (Shimadzu) running at 0.5 ml/min. Chromatography for serum and CSF samples began at 10% B and ended at 16% B at 3.6 min. One minute at 60% B was then required to wash the column, and the pumps re-equilibrated at 10% B for an additional 1.7 min (total run time ~6 min). Outside of the 1.55–3.55 min window during which OT eluted, a divert valve sent the LC effluent to waste.
Heated electrospray […] in positive mode, with scheduled multiple reaction monitoring (MRM) on a Shimadzu LCMS-8050, was used for detection of OT. The interface temperature was 270 °C and heat block temperature was 170 °C. Gas was supplied by a Peak Genius 1051 nitrogen and air generator (Peak Scientific, Inchinnan, UK). Nitrogen gas was used for nebulizing (1 L/min) and drying (8.2 L/min), while air was used for heating (7.8 L/min). A capillary B needle was used in the interface. Needle protrusion was set to 1.25 mm and probe distance was set to 1.0 mm; both were determined empirically. Argon (Airgas, Radnor, PA) was used for the collision-induced dissociation at 330 kPa. The MS/MS conditions for OT were optimized using the automated MRM optimization procedure in LabSolutions software (Shimadzu). We collected two MRM transitions each, for d0OT (1007.40 > 723.40 and 1007.40 > 285.30), d5OT (1012.00 > 723.40 and 1012.00 > 290.35), and d10OT (1017.70 > 723.35 and 1017.70 > 295.40); the first transition listed in each case was used for quantitation, while the second was used as a reference ion. Retention times for d0OT, d5OT, and d10OT were 3.290, 3.270, and 3.253 min, respectively.
The sensitivities of each assay within the method were determined by the lowest and highest concentration calibrators in the calibration curve. The lower limit of quantitation (LLOQ) for d0OT was 10 pg/ml (4 pg/col); the LLOQ for d5OT was 100 pg/ml (40 pg/col). […]

Q: Which “Concentrations of endogenous brain oxytocin (OT)” value (shortened to “Concentrations”) (Amygdala, 40 IN, monkey #5 (F)) does the source give for `CC[C@H](C)[C@@H]1NC(=O)[C@H](Cc2ccc(O)cc2)NC(=O)[C@@H](N)CSSC[C@@H](C(=O)N2CCC[C@H]2C(=O)N[C@@H](CC(C)C)C(=O)NCC(N)=O)NC(=O)[C@H](CC(N)=O)NC(=O)[C@H](CCC(N)=O)NC1=O` [OT, oxytocin] here?
A: 2.14e-07 M

Q: What about the “Concentrations” value (Amygdala, 80 IN, monkey #2 (M)) of the same compound?
A: 3.2e-08 M

Q: And the “Concentrations” value (Amygdala, 80 IN, monkey #4 (M))?
A: 1.31e-07 M

Q: And the “Concentrations” value (Amygdala, 80 IV, monkey #3 (F))?
A: 2.5e-08 M

Q: And the “Concentrations” value (Amygdala, 80 IV, monkey #6 (F))?
A: 4e-08 M

Q: And the “BRAIN OT concentration (endogenous)” value (Amygdala, after d5OT 40 IU IN, monkey #5 (F), perfused 138 min post-dose)?
A: 39.11 pg/mg

Q: And the “BRAIN OT concentration (endogenous)” value (Amygdala, after d5OT 80 IU IN, monkey #2 (M), perfused 136 min post-dose)?
A: 5.82 pg/mg

Q: And the “BRAIN OT concentration (endogenous)” value (Amygdala, after d5OT 80 IU IN, monkey #4 (M), perfused 135 min post-dose)?
A: 23.97 pg/mg

Q: What about the “BRAIN OT concentration (endogenous)” value (Amygdala, after d5OT 80 IU IV, monkey #3 (F), perfused 149 min post-dose) of the same compound?
A: 4.63 pg/mg

Q: And the “BRAIN OT concentration (endogenous)” value (Amygdala, after d5OT 80 IU IV, monkey #6 (F), perfused 135 min post-dose)?
A: 7.26 pg/mg

Q: What about the “Concentrations” value (Brainstem, 40 IN, monkey #1 (F)) of the same compound?
A: 4e-08 M

Q: What about the “Concentrations” value (Brainstem, 40 IN, monkey #5 (F)) of the same compound?
A: 5.1e-08 M

Q: What about the “Concentrations” value (Brainstem, 80 IN, monkey #2 (M)) of the same compound?
A: 2.8e-08 M

Q: And the “Concentrations” value (Brainstem, 80 IN, monkey #4 (M))?
A: 1.9e-08 M

Q: What about the “Concentrations” value (Brainstem, 80 IV, monkey #3 (F)) of the same compound?
A: 6e-08 M

Q: And the “Concentrations” value (Brainstem, 80 IV, monkey #6 (F))?
A: 2e-08 M

Q: What about the “BRAIN OT concentration (endogenous)” value (Brainstem, after d5OT 40 IU IN, monkey #1 (F), perfused 148 min post-dose) of the same compound?
A: 7.27 pg/mg

Q: And the “BRAIN OT concentration (endogenous)” value (Brainstem, after d5OT 40 IU IN, monkey #5 (F), perfused 138 min post-dose)?
A: 9.34 pg/mg

Q: What about the “BRAIN OT concentration (endogenous)” value (Brainstem, after d5OT 80 IU IN, monkey #2 (M), perfused 136 min post-dose) of the same compound?
A: 5.11 pg/mg

Q: And the “BRAIN OT concentration (endogenous)” value (Brainstem, after d5OT 80 IU IN, monkey #4 (M), perfused 135 min post-dose)?
A: 3.55 pg/mg

Q: And the “BRAIN OT concentration (endogenous)” value (Brainstem, after d5OT 80 IU IV, monkey #3 (F), perfused 149 min post-dose)?
A: 10.93 pg/mg

Q: And the “BRAIN OT concentration (endogenous)” value (Brainstem, after d5OT 80 IU IV, monkey #6 (F), perfused 135 min post-dose)?
A: 3.58 pg/mg

Q: What about the “Concentrations” value (Cerebellum, 40 IN, monkey #1 (F)) of the same compound?
A: 1.2e-08 M

Q: What about the “Concentrations” value (Cerebellum, 40 IN, monkey #5 (F)) of the same compound?
A: <1e-09 M

Q: And the “Concentrations” value (Cerebellum, 80 IN, monkey #4 (M))?
A: <1e-09 M

Q: And the “Concentrations” value (Cerebellum, 80 IV, monkey #6 (F))?
A: +

Q: And the “BRAIN OT concentration (endogenous)” value (Cerebellum, after d5OT 40 IU IN, monkey #1 (F), perfused 148 min post-dose)?
A: 2.16 pg/mg

Q: And the “BRAIN OT concentration (endogenous)” value (Cerebellum, after d5OT 40 IU IN, monkey #5 (F), perfused 138 min post-dose)?
A: 0.12 pg/mg

Q: And the “BRAIN OT concentration (endogenous)” value (Cerebellum, after d5OT 80 IU IN, monkey #4 (M), perfused 135 min post-dose)?
A: 0.06 pg/mg

Q: And the “BRAIN OT concentration (endogenous)” value (Cerebellum, after d5OT 80 IU IV, monkey #6 (F), perfused 135 min post-dose)?
A: +

Q: What about the “Concentrations” value (Hippocampus, 40 IN, monkey #1 (F)) of the same compound?
A: 5e-09 M

Q: What about the “Concentrations” value (Hippocampus, 40 IN, monkey #5 (F)) of the same compound?
A: 5e-09 M

Q: What about the “Concentrations” value (Hippocampus, 80 IN, monkey #2 (M)) of the same compound?
A: 1.5e-08 M

Q: And the “Concentrations” value (Hippocampus, 80 IN, monkey #4 (M))?
A: 1.5e-08 M

Q: And the “Concentrations” value (Hippocampus, 80 IV, monkey #3 (F))?
A: 5e-09 M

Q: What about the “Concentrations” value (Hippocampus, 80 IV, monkey #6 (F)) of the same compound?
A: 5e-09 M

Q: What about the “BRAIN OT concentration (endogenous)” value (Hippocampus, after d5OT 40 IU IN, monkey #1 (F), perfused 148 min post-dose) of the same compound?
A: 0.99 pg/mg

Q: What about the “BRAIN OT concentration (endogenous)” value (Hippocampus, after d5OT 40 IU IN, monkey #5 (F), perfused 138 min post-dose) of the same compound?
A: 0.99 pg/mg

Q: And the “BRAIN OT concentration (endogenous)” value (Hippocampus, after d5OT 80 IU IN, monkey #2 (M), perfused 136 min post-dose)?
A: 2.83 pg/mg

Q: And the “BRAIN OT concentration (endogenous)” value (Hippocampus, after d5OT 80 IU IV, monkey #3 (F), perfused 149 min post-dose)?
A: 0.99 pg/mg

Q: What about the “BRAIN OT concentration (endogenous)” value (Hypothalamus, after d5OT 40 IU IN, monkey #1 (F), perfused 148 min post-dose) of the same compound?
A: 2186.74 pg/mg

Q: What about the “BRAIN OT concentration (endogenous)” value (Hypothalamus, after d5OT 80 IU IN, monkey #2 (M), perfused 136 min post-dose) of the same compound?
A: 943.27 pg/mg

Q: What about the “BRAIN OT concentration (endogenous)” value (Hypothalamus, after d5OT 80 IU IV, monkey #3 (F), perfused 149 min post-dose) of the same compound?
A: 1491.96 pg/mg

Q: And the “Concentrations” value (Insular Cortex, 40 IN, monkey #5 (F))?
A: 2e-09 M

Q: And the “Concentrations” value (Insular Cortex, 80 IN, monkey #4 (M))?
A: <1e-09 M

Q: What about the “Concentrations” value (Insular Cortex, 80 IV, monkey #3 (F)) of the same compound?
A: 1e-09 M
